In US20080138838A1, “DIAGNOSIS OF ZD1839 RESISTANT TUMORS” (CEDARS-SINAI MEDICAL CENTER, priority 2002, published 2008):

Test system: androgen-independent human cell line CWR22R grown as a xenograft
Test: ZD1839 resistant xenograft model of human prostate cancer
Assay type: in vivo
Procedure: The androgen-independent human cell line CWR22R was grown as a xenograft in nude mice. See Nagabhushan, et al. (1996) Cancer Res. 56:3042-3046; Agus, et al. (1999) J. Nat'l Cancer Inst. 91:1869-1876; and Bubendorf, et al. (1999) J. Nat'l Cancer Inst. 91:1758-1764. […] The mice were treated continuously with sub-therapeutic doses, and the tumors were allowed to grow for 3-4 weeks, before surgical removal of the tumors. The tumor from an individual mouse was then minced, and a small portion was then injected into a healthy nude mouse, establishing a second passage of the tumor. This mouse was then treated continuously with the same sub-therapeutic dose of ZD1839. This process was repeated 10 times, and a portion of each generation of xenograft tumor was collected. […] RNA from each generation of tumor was then isolated, and individual mRNA species were quantified using a custom Affymetrix GENECHIP® (DNA microarray chip) oligonucleotide microarray (Eos Hu03), with probes to interrogate approximately 46,000 unique mRNA transcripts. […] The gene products of the genes listed in Tables 1A-C may be particularly useful as targets in the treatment of ZD1839 resistant tumors derived from prostate cancer, small cell lung cancer, breast cancer, glioblastoma, cervical cancer, colon cancer, head and neck cancer, renal cell carcinoma, and pancreatic cancer. Prostate cancer includes epithelial neoplasms (e.g., adenocarcinoma, small cell tumors, transitional cell carcinoma, carcinoma in situ, and basal cell carcinoma), carcinosarcoma, non-epithelial neoplasms (e.g., mesenchymal and lymphoma), germ cell tumors, prostatic intraepithelial neoplasia (PIN), hormone independent prostate cancer, and metastatic prostate cancer (e.g., to bone, lung, or lymph node).

COc1cc2ncnc(Nc3ccc(F)c(Cl)c3)c2cc1OCCCN1CCOCC1 [ZD1839]
response of xenograft tumors to therapeutic doses of ZD1839 (end of the process (passaging repeated 10 times under continuous sub-therapeutic doses, nude mice)): fully resistant to therapeutic doses
response of xenograft tumors to therapeutic doses of ZD1839 (initially (parental CWR22R xenograft in nude mice)): sensitive to therapeutic doses
resistance of xenograft tumors to therapeutic doses of ZD1839 (successive passages in nude mice under continuous sub-therapeutic doses): increased with each generation
